Source: article PMC9542405, “Design, synthesis and antitumor activity of 5-trifluoromethylpyrimidine derivatives as EGFR inhibitors” (Journal of Enzyme Inhibition and Medicinal Chemistry, 2022)

What was measured:
[1] = test system: A549 cells; assay: In vitro activity against cancer cell lines (MTT), A549; type: cell-based; conditions: Homo sapiens, mean ± SD of three replicates
From the text: (§1) Co., Ltd. A549 (Human non-small-cell lung cancer cell line) cells, MCF-7 (Human breast cancer
(§2) cell line) cells, and PC-3 (Human prostate cancer cell line) cells. They were all purchased from the
(§3) Shanghai Cell Bank of the Chinese Academy of Sciences. NRK-52E (Normal rat kidney cell line)
(§4) cells donated by Guizhou Medicinal University were also used to evaluate the cytotoxicity.

[2] = target: T1, EGFR^wt-TK (Homo sapiens, UniProt P00533); assay: In vitro EGFR^wt-TK assay (ELISA kit); type: biochemical; conditions: mean ± SD of three replicates; for EGFR^wt-TK inhibition rate / inhibition at 1 µM: 1 μM; for inhibition at 1 µM: read-out: EGFR^wt-TK inhibition rate
T1 construct: purchased
T1 sequence (P00533 25-1210): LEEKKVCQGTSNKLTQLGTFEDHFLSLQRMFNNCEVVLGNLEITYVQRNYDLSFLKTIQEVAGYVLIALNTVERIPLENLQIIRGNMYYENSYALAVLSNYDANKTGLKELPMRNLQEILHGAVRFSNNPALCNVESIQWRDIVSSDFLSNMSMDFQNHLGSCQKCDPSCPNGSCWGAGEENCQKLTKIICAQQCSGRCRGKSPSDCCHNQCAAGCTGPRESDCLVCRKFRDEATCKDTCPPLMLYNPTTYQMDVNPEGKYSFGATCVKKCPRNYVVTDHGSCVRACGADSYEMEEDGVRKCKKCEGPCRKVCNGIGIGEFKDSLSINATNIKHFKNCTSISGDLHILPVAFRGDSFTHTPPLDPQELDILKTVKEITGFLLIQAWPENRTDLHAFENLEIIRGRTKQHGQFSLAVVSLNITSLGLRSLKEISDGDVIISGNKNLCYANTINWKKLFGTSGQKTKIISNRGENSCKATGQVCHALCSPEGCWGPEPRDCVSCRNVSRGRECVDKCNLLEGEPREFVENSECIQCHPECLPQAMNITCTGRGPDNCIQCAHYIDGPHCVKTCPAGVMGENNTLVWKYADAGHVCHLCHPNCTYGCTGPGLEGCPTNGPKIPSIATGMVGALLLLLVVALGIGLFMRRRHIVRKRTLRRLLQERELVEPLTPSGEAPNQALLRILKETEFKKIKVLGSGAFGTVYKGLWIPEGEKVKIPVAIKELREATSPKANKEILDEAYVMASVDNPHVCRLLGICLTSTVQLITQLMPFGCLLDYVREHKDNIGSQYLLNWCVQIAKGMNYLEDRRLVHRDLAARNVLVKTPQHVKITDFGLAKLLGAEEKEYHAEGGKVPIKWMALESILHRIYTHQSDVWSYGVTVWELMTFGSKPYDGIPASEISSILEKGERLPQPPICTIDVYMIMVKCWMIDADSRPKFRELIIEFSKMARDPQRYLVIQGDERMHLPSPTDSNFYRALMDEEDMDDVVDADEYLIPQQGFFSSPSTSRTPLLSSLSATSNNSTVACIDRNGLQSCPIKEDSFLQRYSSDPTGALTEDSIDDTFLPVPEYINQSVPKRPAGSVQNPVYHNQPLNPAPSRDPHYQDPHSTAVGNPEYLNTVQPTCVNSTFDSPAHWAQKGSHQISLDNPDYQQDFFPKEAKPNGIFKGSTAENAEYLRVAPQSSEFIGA
Method: The IC50 values of target compounds against EGFR^wt were calculated from the dose − response curve under Graph-Pad Prism 9, which was tested at the different concentrations.

[3] = test system: PC-3 cells; assay: In vitro activity against cancer cell lines (MTT), PC-3; type: cell-based; conditions: Homo sapiens, mean ± SD of three replicates
From the text: as §1, §2, §3, §4

[4] = test system: MCF-7 cells; assay: In vitro activity against cancer cell lines (MTT), MCF-7; type: cell-based; conditions: Homo sapiens, MCF7, mean ± SD of three replicates
From the text: as §1, §2, §3, §4

| Compound | IC50 [1] | melting point | EGFR^wt-TK inhibition rate [2] | inhibition at 1 µM [2] | IC50 [2] | IC50 [3] | IC50 [4] |
| --- | --- | --- | --- | --- | --- | --- | --- |
| CNC(=O)c1sccc1Nc1nc(Nc2ccc(NC(=O)C3CCOCC3)cc2)ncc1C(F)(F)F [Compound 9p, Tetrahydro-pyran-4-carboxylicacid{4-[4-(2-methylcarbamoyl-thiophen-3-ylamino)-5-trifluoromethyl-pyrimidin-2-ylamino]-phenyl}-amide] | 7.28 ± 0.47 µM | 232.3 to 233.8 °C |  | 36.46 ± 0.23% |  | > 20 µM | 10 ± 0.96 µM |
| CNC(=O)c1sccc1Nc1nc(Nc2ccc(NC(=O)C3CCN(C)CC3)cc2)ncc1C(F)(F)F [Compound 9r, 1-Methyl-piperidine-4-carboxylicacid{4-[4-(2-methylcarbamoyl-thiophen-3-ylamino)-5-trifluoromethyl-pyrimidin-2-ylamino]-phenyl}-amide] | 8.41 ± 0.92 µM | 210.8 to 211.6 °C |  | 33 ± 0.57% |  | > 20 µM | 11.2 ± 1.47 µM |
| CCC(=O)Nc1ccc(Nc2ncc(C(F)(F)F)c(Nc3ccsc3C(=O)NC)n2)cc1 [Compound 9i, 3-[2-(4-Propionylamino-phenylamino)-5-trifluoromethyl-pyrimidin-4-ylamino]-thiophene-2-carboxylic acid methylamide] | 17.8 ± 1.67 µM |  |  | 11.9 ± 0.35% |  | > 20 µM | > 20 µM |
| CNC(=O)c1sccc1Nc1nc(Nc2ccc(NC(=O)C3CCC3)cc2)ncc1C(F)(F)F [Compound 9m, 3-{2-[4-(Cyclobutanecarbonyl-amino)-phenylamino]-5-trifluoromethyl-pyrimidin-4-ylamino}-thiophene-2-carboxylic acid methylamide] | 15.1 ± 2.29 µM | 236.1 to 236.4 °C |  | 13.3 ± 0.83% |  | > 20 µM | > 20 µM |
| CNC(=O)c1sccc1Nc1nc(Nc2ccc(NC(=O)C3CC3)cc2)ncc1C(F)(F)F [Compound 9l, 3-{2-[4-(Cyclopropanecarbonyl-amino)-phenylamino]-5-trifluoromethyl-pyrimidin-4-ylamino}-thiophene-2-carboxylic acid methylamide] | 16.5 ± 2.31 µM | > 250 °C |  | 12.6 ± 1.07% |  | > 20 µM | > 20 µM |
| CNC(=O)c1sccc1Nc1nc(Nc2ccc(NC(=O)c3cccc(C(F)(F)F)c3)cc2)ncc1C(F)(F)F [Compound 9f, 3-{5-Trifluoromethyl-2-[4-(3-trifluoromethyl-benzoylamino)-phenylamino]-pyrimidin-4-ylamino}-thiophene-2-carboxylic acid methylamide] | 5.13 ± 0.46 µM | 232 to 233.5 °C |  | 41.1 ± 1.79% |  | 12.2 ± 1.54 µM | 6.54 ± 0.53 µM |
| CNC(=O)c1sccc1Nc1nc(Nc2ccc(NC(=O)c3ccc(OC)cc3)cc2)ncc1C(F)(F)F [Compound 9g, 3-{2-[4-(4-Methoxy-benzoylamino)-phenylamino]-5-trifluoromethyl-pyrimidin-4-ylamino}-thiophene-2-carboxylic acid methylamide] | 7.63 ± 0.62 µM | 229.4 to 230.6 °C |  | 28.8 ± 0.62% |  | > 20 µM | 10.1 ± 1.18 µM |
| CNC(=O)c1sccc1Nc1nc(Nc2ccc(NC(=O)C3CCC(=O)CC3)cc2)ncc1C(F)(F)F [Compound 9q, N-Methyl-3-((2-((4-(4-oxocyclohexane-1-carboxamido)phenyl)amino)-5-(trifluoromethyl)pyrimidin-4-yl)amino)thiophene-2-carboxamide] | 7.65 ± 0.39 µM |  |  | 35.5 ± 0.89% |  | > 20 µM | 10.6 ± 1.58 µM |
| CNC(=O)c1sccc1Nc1nc(Nc2ccc(NC(=O)C(C)C)cc2)ncc1C(F)(F)F [Compound 9j, 3-[2-(4-Isobutyrylamino-phenylamino)-5-trifluoromethyl-pyrimidin-4-ylamino]-thiophene-2-carboxylic acid methylamide] | > 20 µM |  |  | 8.76 ± 0.68% |  | > 20 µM | > 20 µM |
| CNC(=O)c1sccc1Nc1nc(Nc2ccc(NC(=O)C3CCCC3)cc2)ncc1C(F)(F)F [Compound 9n, 3-{2-[4-(Cyclopentanecarbonyl-amino)-phenylamino]-5-trifluoromethyl-pyrimidin-4-ylamino}-thiophene-2-carboxylic acid methylamide] | 13.8 ± 1.57 µM | 246.4 to 247.2 °C |  | 18.9 ± 1.14% |  | > 20 µM | > 20 µM |
| CNC(=O)c1sccc1Nc1nc(Nc2ccc(NC(=O)Nc3ccc(F)cc3)cc2)ncc1C(F)(F)F [Compound 9x, 3–(2-{4-[3–(4-Fluoro-phenyl)-ureido]-phenylamino}-5-trifluoromethyl-pyrimidin-4-ylamino)-thiophene-2-carboxylic acid methylamide] | 4.25 ± 0.86 µM | > 250 °C |  | 44.5 ± 1.84% |  | 11.5 ± 1.23 µM | 6.38 ± 0.97 µM |
| CNC(=O)c1sccc1Nc1nc(Nc2ccc(NC(=O)C3CCN(C(C)=O)CC3)cc2)ncc1C(F)(F)F [Compound 9s, 1-Acetyl-piperidine-4-carboxylicacid{4-[4-(2-methylcarbamoyl-thiophen-3-ylamino)-5-trifluoromethyl-pyrimidin-2-ylamino]-phenyl}-amide] | 6.92 ± 0.38 µM | > 250 °C |  | 37.1 ± 0.46% |  | > 20 µM | 9.75 ± 0.85 µM |
| CNC(=O)c1sccc1Nc1nc(Nc2ccc(NC(=O)c3ccccc3)cc2)ncc1C(F)(F)F [Compound 9a, 3-[2-(4-Benzoylamino-phenylamino)-5-trifluoromethyl-pyrimidin-4-ylamino]-thiophene-2-carboxylic acid methylamide] | 8.51 ± 0.94 µM | 212.5 to 213.8 °C |  | 32.5 ± 2.56% |  | 14.6 ± 0.83 µM | 11.9 ± 1.36 µM |

Stronger by IC50 [1], values ahead:

| IC50 [1] | melting point | EGFR^wt-TK inhibition rate [2] | inhibition at 1 µM [2] | IC50 [2] | IC50 [3] | IC50 [4] | Compound |
| --- | --- | --- | --- | --- | --- | --- | --- |
| 2.77 ± 0.59 µM | 218.9 to 219.7 °C | 54.49 ± 1.44% | > 50% | 0.44 ± 0.11 µM | 17 ± 1.82 µM |  | CNC(=O)c1sccc1Nc1nc(Nc2ccc(NC(=O)c3ccc(F)c(F)c3)cc2)ncc1C(F)(F)F [Compound 9e, 3-{2-[4-(3,4-Difluoro-benzoylamino)-phenylamino]-5-trifluoromethyl-pyrimidin-4-ylamino}-thiophene-2-carboxylic acid methylamide] |
| 3.75 ± 0.55 µM | 217.2 to 219.3 °C |  | 49.38 ± 0.47% |  | 16.7 ± 1.53 µM |  | CNC(=O)c1sccc1Nc1nc(Nc2ccc(NC(=O)c3ccc(F)cc3)cc2)ncc1C(F)(F)F [Compound 9d, 3-{2-[4-(4-Fluoro-benzoylamino)-phenylamino]-5-trifluoromethyl-pyrimidin-4-ylamino}-thiophene-2-carboxylic acid methylamide] |
| 2.23 ± 0.42 µM | 239.8 to 241.5 °C | 55.48 ± 1.71% | > 50% | 0.31 ± 0.095 µM | 16.4 ± 2.27 µM | 5.32 ± 0.74 µM | CNC(=O)c1sccc1Nc1nc(Nc2ccc(NC(=O)c3cccc(F)c3)cc2)ncc1C(F)(F)F [Compound 9c, 3-{2-[4–(3-Fluoro-benzoylamino)-phenylamino]-5-trifluoromethyl-pyrimidin-4-ylamino}-thiophene-2-carboxylic acid methylamide] |
| 4.03 ± 0.47 µM | 213.3 to 215.4 °C |  | 46.3 ± 1.85% |  | 11.2 ± 1.68 µM | 6.05 ± 0.82 µM | CNC(=O)c1sccc1Nc1nc(Nc2ccc(NC(=O)c3ccccc3F)cc2)ncc1C(F)(F)F [Compound 9b, 3-{2-[4-(2-Fluoro-benzoylamino)-phenylamino]-5-trifluoromethyl-pyrimidin-4-ylamino}-thiophene-2-carboxylic acid methylamide] |
| 1.66 ± 0.54 µM | 211.9 to 213.1 °C | 56.43 ± 0.51% | > 50% | 0.35 ± 0.062 µM | 11.3 ± 1.42 µM | 3.37 ± 0.62 µM | CNC(=O)c1sccc1Nc1nc(Nc2ccc(NC(=O)c3cc(OC)c(OC)c(OC)c3)cc2)ncc1C(F)(F)F [Compound 9h, 3-{5-Trifluoromethyl-2-[4-(3,4,5-trimethoxy-benzoylamino)-phenylamino]-pyrimidin-4-ylamino}-thiophene-2-carboxylic acid methylamide] |
| 1.82 ± 0.49 µM |  | 55.73 ± 2.14% | > 50% | 0.48 ± 0.073 µM | 15.4 ± 2.38 µM | 4.91 ± 0.83 µM | C#CC(=O)Nc1ccc(Nc2ncc(C(F)(F)F)c(Nc3ccsc3C(=O)NC)n2)cc1 [Compound 9k, 3-[2-(4-Propynoylamino-phenylamino)-5-trifluoromethyl-pyrimidin-4-ylamino]-thiophene-2-carboxylic acid methylamide] |
| 0.46 ± 0.27 µM | 248.8 to 249.1 °C | 58.14 ± 1.76% | > 50% | 0.14 ± 0.053 µM | 7.88 ± 1.34 µM | 4.13 ± 0.21 µM | CNC(=O)c1sccc1Nc1nc(Nc2ccc(NC(=O)C=Cc3ccc(F)cc3)cc2)ncc1C(F)(F)F [Compound 9v, 3–(2-{4-[3-(4-Fluoro-phenyl)-acryloylamino]-phenylamino}-5-trifluoromethyl-pyrimidin-4-ylamino)-thiophene-2-carboxylic acid methylamide] |
| 3.67 ± 0.61 µM | 212.5 to 213.8 °C | 53.56 ± 1.69% | > 50% | 0.26 ± 0.071 µM | > 20 µM | 6.45 ± 0.53 µM | CNC(=O)c1sccc1Nc1nc(Nc2ccc(NC(=O)C=Cc3ccccc3)cc2)ncc1C(F)(F)F [Compound 9t, 3-{2-[4-(3-Phenyl-acryloylamino)-phenylamino]-5-trifluoromethyl-pyrimidin-4-ylamino}-thiophene-2-carboxylic acid methylamide] |
